Measured values: paper PMC5998037, “Glutamine 89 is a key residue in the allosteric modulation of human serine racemase activity by ATP” (Scientific Reports, 2018)
Positions count from the first letter of the chain named. Several values for one entry are separate records, joined by “and”; a condition that tells them apart may be missing. Equal values may be shown once. Read-outs that look alike come from different tables or passages of the source. Values belong to the molecule of their own block, whether it stands above or below them.

Columns and labels:
StTdcB = tested on: StTdcB; parameters: method as in PMID 17046821; details: 5 mM AMP; cited from earlier work
Q89A-hSR [1] = target: T1, Q89A-hSR (Homo sapiens, UniProt Q9GZT4, Q89A); assay: L-Ser racemisation (DAAO-coupled discontinuous assay); assay type: biochemical; details: L-Ser racemisation by Q89A-hSR, 2 mM ATP vs absence of nucleotide
T1 construct: hexa-His; made in house; host or cells: E. coli BL21 CodonPlus (DE3)-RIL with GroEL/GroES
T1 sequence (Q9GZT4 1-340 Q89A): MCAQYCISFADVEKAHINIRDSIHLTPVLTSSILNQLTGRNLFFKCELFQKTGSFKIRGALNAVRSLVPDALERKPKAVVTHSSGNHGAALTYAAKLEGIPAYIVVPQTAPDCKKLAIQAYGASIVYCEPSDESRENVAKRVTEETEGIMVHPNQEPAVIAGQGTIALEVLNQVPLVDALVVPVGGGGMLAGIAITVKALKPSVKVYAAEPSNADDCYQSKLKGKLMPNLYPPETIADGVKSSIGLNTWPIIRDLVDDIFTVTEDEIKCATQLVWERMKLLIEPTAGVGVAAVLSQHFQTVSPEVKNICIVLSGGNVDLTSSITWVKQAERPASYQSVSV
Experimental: (§1) The formation of D-serine as a function of L-serine concentration was determined using a discontinuous assay, based on oxidation of D-serine by the enzyme DAAO (Sigma Aldrich, A5222)[18],[37],[54]. This reaction produces hydrogen peroxide, that is used by the horseradish peroxidase to oxidize o-dianisidine dihydrochloride to form a chromophoric product. After the addition of sulphuric acid to increase the solubility, the concentration of this product can be measured at 550 nm. L-serine at various final concentrations was added to buffer A containing 1.5 µM hSR, in the absence and presence of 2 mM ATP. The reaction mixture was incubated at 37 °C and aliquots were periodically removed to determine D-serine concentration. L-serine was purified from any D-serine contaminations through 48 hours of incubation with 400 U/ml of DAAO and 100 U/ml of catalase, which were subsequently thermally inactivated. Absolute D-serine concentrations were determined using calibrations curves obtained by reacting known D-serine concentrations with DAAO. Absorbance signal was acquired by a Halo LED 96 plate reader (Dynamica Scientific, UK).
(§2) The half-maximal activation (EC50) caused by ATP binding to hSR was calculated with Eq. (1):1 vi/v0=a⋅[ATP]/EC50+[ATP] where vi is the velocity of the reaction catalysed by the enzyme in presence of a defined ATP concentration, v0 is the velocity of the reaction catalysed by the enzyme in the absence of ATP and a is the difference between the maximum and the basal activity. The dissociation constant (KD) of ligands for hSR calculated by fluorimetric titrations was calculated with Eq. (2):2 y=y0+a⋅[L]/KD+[L] where y is the fluorescence emission intensity, [L] is the ligand concentration, y0 is an offset and a is the amplitude. The fluorescence emission intensity was collected at 480 nm for glycine titration, at 492 nm for ATP titration and at 478 nm for ATP titration in the presence of glycine. […] Catalytic efficiency for the dehydratase activity of Q89A-hSR on D-Ser was calculated at [D-Ser] < Km, where equation (3) becomes v0≅Vmax/Km .

Q89M-hSR [2] = target: T2, Q89M-hSR (Homo sapiens, UniProt Q9GZT4, Q89M); assay: as above; assay type: biochemical; details: L-Ser racemisation by Q89M-hSR, 2 mM ATP vs absence of nucleotide
T2 construct: hexa-His; made in house; host or cells: E. coli BL21 CodonPlus (DE3)-RIL with GroEL/GroES
T2 sequence (Q9GZT4 1-340 Q89M): T1 sequence (Q9GZT4 1-340 Q89A) with A89M
Experimental: as §1, §2

hSR [3] = target: T3, hSR (Homo sapiens, UniProt Q9GZT4); assay: as above; assay type: biochemical; details: L-Ser racemisation by hSR, 2 mM ATP vs absence of nucleotide
T3 construct: His tag; made in house; host or cells: Escherichia coli (co-expressed with chaperones)
T3 sequence (Q9GZT4 1-340): T1 sequence (Q9GZT4 1-340 Q89A) with A89Q
Experimental: as §1, §2

Q89A-hSR [4] = target: T1, Q89A-hSR; assay: L-Ser dehydration (LDH-coupled assay); assay type: biochemical; details: L-Ser dehydration by Q89A-hSR, 2 mM ATP vs absence of nucleotide
Experimental: (§3) The initial velocity of L-serine dehydration by hSR was monitored by a coupled assay with lactate dehydrogenase (LDH)[5] as previously reported. Nicotinamide adenine dinucleotide (NADH) consumption was followed at 340 nm using a Varian Cary4000 spectrophotometer. The assay solution in buffer A contained 5 mM DTT, 30 U/ml LDH and 300 μM NADH. The concentration of magnesium used in the assay was always higher than or equal to the concentration of ATP. If not otherwise stated, it was set to 2 mM. The protein concentration used in the assay for L-Ser dehydration was 0.4 and 1.6 μM in the presence and absence of 2 mM ATP, respectively. The concentration used in the assay for D-Ser dehydration was 3.1 and 6.0 μM in the presence and absence of ATP, respectively.
(§4) The half-maximal activation (EC50) caused by ATP binding to hSR was calculated with Eq. (1):1 vi/v0=a⋅[ATP]/EC50+[ATP] where vi is the velocity of the reaction catalysed by the enzyme in presence of a defined ATP concentration, v0 is the velocity of the reaction catalysed by the enzyme in the absence of ATP and a is the difference between the maximum and the basal activity. The dissociation constant (KD) of ligands for hSR calculated by fluorimetric titrations was calculated with Eq. (2):2 y=y0+a⋅[L]/KD+[L] where y is the fluorescence emission intensity, [L] is the ligand concentration, y0 is an offset and a is the amplitude. The fluorescence emission intensity was collected at 480 nm for glycine titration, at 492 nm for ATP titration and at 478 nm for ATP titration in the presence of glycine. The kinetic parameters were calculated using the Michaelis –Menten equation:3 v0=Vmax⋅[S]/Km+[S] where v0 is the initial enzymatic rate, Vmax is the rate at substrate saturation, Km is the Michaelis constant and [S] is the substrate concentration. Catalytic efficiency for the dehydratase activity of Q89A-hSR on D-Ser was calculated at [D-Ser] < Km, where equation (3) becomes v0≅Vmax/Km .

Q89M-hSR [5] = target: T2, Q89M-hSR; assay: L-Ser dehydration (LDH-coupled assay); assay type: biochemical; details: L-Ser dehydration by Q89M-hSR, 2 mM ATP vs absence of nucleotide
Experimental: as §3, §4

Q89A-hSR [6] = target: T1, Q89A-hSR; assay: D-Ser dehydration (LDH-coupled assay); assay type: biochemical; details: D-Ser dehydration by Q89A-hSR, ATP vs absence of nucleotide
Experimental: as §3, §4

Q89M-hSR [7] = target: T2, Q89M-hSR; assay: D-Ser dehydration (LDH-coupled assay); assay type: biochemical; details: D-Ser dehydration by Q89M-hSR, 2 mM ATP vs absence of nucleotide
Experimental: as §3, §4

hSR [8] = target: T3, hSR; assay: D-Ser dehydration (LDH-coupled assay); assay type: biochemical; details: D-Ser dehydration by hSR
Experimental: as §3, §4

Q89A-hSR [9] = target: T1, Q89A-hSR; assay: Activation of L-Ser dehydratase activity by ATP; assay type: biochemical
Experimental: (§5) Nicotinamide adenine dinucleotide (NADH) consumption was followed at 340 nm using a Varian Cary4000 spectrophotometer. The assay solution in buffer A contained 5 mM DTT, 30 U/ml LDH and 300 μM NADH. The concentration of magnesium used in the assay was always higher than or equal to the concentration of ATP. If not otherwise stated, it was set to 2 mM. […] The concentration used in the assay for D-Ser dehydration was 3.1 and 6.0 μM in the presence and absence of ATP, respectively.
(§6) The fluorescence emission intensity was collected at 480 nm for glycine titration, at 492 nm for ATP titration and at 478 nm for ATP titration in the presence of glycine. The kinetic parameters were calculated using the Michaelis –Menten equation:3 v0=Vmax⋅[S]/Km+[S] where v0 is the initial enzymatic rate, Vmax is the rate at substrate saturation, Km is the Michaelis constant and [S] is the substrate concentration.

Q89M-hSR [10] = target: T2, Q89M-hSR; assay: Activation of L-Ser dehydratase activity by ATP; assay type: biochemical
Experimental: as §5, §6

Q89M-hSR [11] = target: T2, Q89M-hSR; assay: Fluorimetric titrations (PLP fluorescence emission); assay type: binding
Experimental: Fluorescence emission spectra upon excitation at 412 nm were collected using a FluoroMax-3 fluorometer (HORIBA Jobin Yvon, Kyoto, Japan) at 20.0 ± 0.5 °C. […] Binding of either glycine or ATP was measured by direct titrations of the protein solution in the range 0–1.2 mM and 0–1.0 mM, respectively. […] Spectra were corrected for buffer contribution. Far-UV circular dichroism spectra (195–260 nm) were collected using a JASCO J-715 spectropolarimeter (Easton, MD, USA). […] Each spectrum is the average of three independent measurements.
as §6

hSR [12] = target: T3, hSR; parameters: method as in PMID 23992455; details: wt hSR, cited from earlier work
hSR [13] = target: T3, hSR; parameters: method as in PMID 23992455; details: cited from earlier work; for Kd: hSR
hSR [14] = target: T3, hSR; assay: L-Ser dehydration (LDH-coupled assay); assay type: biochemical; details: hSR saturated with ATP
Experimental: as §3, §4

[15] = 2 mM ATP, preliminary, data not shown

SMILES: Nc1ncnc2c1ncn2[C@@H]1O[C@H](COP(=O)(O)O)[C@@H](O)[C@H]1O [AMP]
fold decrease in Km (StTdcB): 7.7 fold
fold increase in Vmax (StTdcB): 3 fold

SMILES: N[C@H](CO)C(=O)O [D-Ser, D-serine]
kcat (hSR [8]; −ATP): 0.0283 ± 0.0017 s⁻¹

SMILES: N[C@@H](CO)C(=O)O [L-Ser, L-serine]
dehydratase activity efficiency relative to racemisation (hSR [14]): 15 fold

More lines, main results first:

Increase (fold increase of catalytic efficiency kcat/Km in the presence of ATP) (Q89A-hSR [1]): 1.6 fold
Increase (fold increase of catalytic efficiency kcat/Km in the presence of ATP) (Q89M-hSR [2]): 1.8 fold
Increase (fold increase of catalytic efficiency kcat/Km in the presence of ATP) (hSR [3]): 2 fold and 1.9 fold
Increase (fold increase of catalytic efficiency kcat/Km in the presence of ATP) (Q89A-hSR [4]): 3.3 fold
Increase (fold increase of catalytic efficiency kcat/Km in the presence of ATP) (Q89M-hSR [5]): 3.9 fold
Increase (fold increase of catalytic efficiency kcat/Km in the presence of ATP) (Q89A-hSR [6]): 2.3 fold
Increase (fold increase of catalytic efficiency kcat/Km in the presence of ATP) (Q89M-hSR [7]): 2.8 fold
Increase (fold increase of catalytic efficiency kcat/Km in the presence of ATP) (hSR [8]; 2 mM ATP vs absence of nucleotide): 4.0 fold
fold increase of specific dehydratase activity (Q89A-hSR [9]; [15]): about 4 fold
effect on activity of further addition of ATP (Q89A-hSR [9]; ATP up to 10 mM): not increased
cooperativity of ATP binding (activity assay) (Q89A-hSR [9]; saturating 300 mM L-Ser): non-cooperative
fold increase of specific dehydratase activity (Q89M-hSR [10]; [15]): about 4 fold
effect on activity of further addition of ATP (Q89M-hSR [10]; ATP up to 10 mM): not increased
cooperativity of ATP binding (activity assay) (Q89M-hSR [10]; saturating 300 mM L-Ser): non-cooperative
EC50 (Q89M-hSR [10]; saturating 300 mM L-Ser, read-out: half-maximal activation (EC50) by ATP, L-Ser dehydratase activity): 21 ± 2 µM
difference between KD and EC50 of ATP (Q89M-hSR [11]; Q89M-hSR, KD without substrate vs EC50 with 300 mM L-Ser): 6 fold
cooperativity of ATP binding (fluorimetric titration) (Q89M-hSR [11]; Q89M-hSR, absence of substrate): no cooperativity
fold increase in fluorescence emission intensity upon ATP binding (Q89M-hSR [11]; Q89M-hSR, excitation at 412 nm, absence of substrate): 1.65 fold
Kd (Q89M-hSR [11]; Q89M-hSR, ligand 2 Glycine (1 mM)): 48 ± 5 µM
Kd (Q89M-hSR [11]; Q89M-hSR, no ligand 2 (absence of substrate/glycine)): 154 ± 13 µM
SMILES: Nc1ncnc2c1ncn2[C@@H]1O[C@H](COP(=O)(O)OP(=O)(O)OP(=O)(O)O)[C@@H](O)[C@H]1O [ATP]
fold increase of specific dehydratase activity (hSR [12]; 2 mM ATP): 7 fold
Hill coefficient n of ATP dependence of L-Ser dehydratase activity (hSR [12]; sigmoidal fit): 1.7 ± 0.2 and 1.7
EC50 (hSR [12]; sigmoidal fit, read-out: half maximal effective concentration of ATP (EC50), L-Ser dehydratase activity): 220 ± 10 µM
Kd (hSR [13]; ligand 2 Glycine): 4.9 ± 0.6 µM
Hill coefficient of nucleotide binding (hSR [13]; human enzyme): about 2
Hill coefficient n, fluorimetric titration with ATP (hSR [13]; wt hSR, sigmoidal fit): 1.8 ± 0.1
EC50 (hSR [13]; wt hSR, sigmoidal fit, read-out: EC50 of ATP, fluorimetric titration): 257 ± 10 µM

fold higher affinity for Q89M-hSR (vs wt hSR) (Q89M-hSR [11]; Q89M-hSR vs hSR): more than 60 fold
Kd (Q89M-hSR [11]; Q89M-hSR, ligand 2 ATP (2 mM)): 28 ± 3 µM
Kd (Q89M-hSR [11]; Q89M-hSR, no ligand 2 (absence of ATP)): 110 ± 2 µM
SMILES: NCC(=O)O [Glycine]
Kd (hSR [13]; ligand 2 ATP): 470 ± 30 µM
Kd (hSR [13]; no ligand 2): 7000 ± 300 µM
